Test results as given in patent US8772266B2, “Fungicide pyrazole carboxamides derivates” (Bayer Cropscience AG, priority 2009, dated 2014).

Experiments:
Sphaerotheca fuliginea = experiment: In vivo preventive test on Sphaerotheca fuliginea (cucumber), Example G; conditions: 10 ppm of active ingredient, evaluated 7 days after inoculation
Source text: After the spray coating has dried on, the plants are inoculated with an aqueous spore suspension of Sphaerotheca fuliginea.

[1] = logP by HPLC on reversed-phase column (EEC Directive 79/831 Annex V.A8); conditions: 40° C., 0.1% aqueous formic acid and acetonitrile, linear gradient 10% to 90% acetonitrile
[2] = HPLC on reversed-phase column (C 18)
[3] = HPLC, reversed-phase column (C 18)

SMILES | disease control (Sphaerotheca fuliginea) | logP [1, 2] | logP [1, 3]
CC(c1cc(Cl)ccc1C(F)(F)F)N(C(=O)c1c(C(F)F)nn(C)c1F)C1CC1 (stereo not drawn) [Example 101] | 100% | 3.92 | 
Cn1nc(C(F)F)c(C(=O)N(Cc2cc(F)ccc2C2CC2)C2CC2)c1F [Example 123] | 100% |  | 
Cn1nc(C(F)F)c(C(=O)N(Cc2c([Si](C)(C)C)ccc(F)c2F)C2CC2)c1F [Example 49] | 100% |  | 4.36
CC(C)Cc1ccc(Cl)cc1CN(C(=O)c1c(C(F)F)nn(C)c1F)C1CC1 [Example 120] | 100% |  | 
CC(C)c1ccc(F)c(F)c1CN(C(=O)c1c(C(F)F)nn(C)c1F)C1CC1 [Example 136] | 100% |  | 
CC(c1cccc2c1CCC(C)(C)C2)N(C(=O)c1c(C(F)F)nn(C)c1F)C1CC1 (single isomer, unassigned) [Example 44a] | 100% |  | 
CC(C)c1ccccc1CN(C(=O)c1c(C(F)F)nn(C)c1F)C1CC1C (stereo not drawn) [Example 157] | 100% |  | 
CC(C)Cc1ccc(F)c(F)c1CN(C(=O)c1c(C(F)F)nn(C)c1F)C1CC1 [Example 112] | 100% |  | 
Cc1ccc(C(F)(F)F)c(CN(C(=O)c2c(C(F)F)nn(C)c2F)C2CC2)c1 [Example 12] | 100% |  | 3.78
Cn1nc(C(F)F)c(C(=O)N(Cc2c(Cl)cccc2Br)C2CC2)c1F [Example 83] | 100% |  | 3.42
Cn1nc(C(F)F)c(C(=O)N(Cc2ccccc2C2CCCC2)C2CC2)c1F [Example 82] | 100% |  | 4.2
Cn1nc(C(F)F)c(C(=O)N(Cc2c(C(F)(F)F)ccc(F)c2F)C2CC2)c1F [Example 68] | 100% |  | 3.31
CCCCc1ccc(F)c(F)c1CN(C(=O)c1c(C(F)F)nn(C)c1F)C1CC1 [Example 126] | 100% |  | 
Cn1nc(C(F)F)c(C(=O)N(Cc2cc(F)ccc2C2CCCC2)C2CC2)c1F [Example 138] | 100% |  | 
Cn1nc(C(F)F)c(C(=O)N(Cc2c(F)cccc2[Si](C)(C)C)C2CC2)c1F [Example 11] | 100% |  | 4.31
Cn1nc(C(F)F)c(C(=O)N(C2CC2)C2CCC(C)(C)c3ccccc32)c1F (stereo not drawn) [Example 99] | 100% |  | 4.16
CC[Si](C)(C)c1ccccc1CN(C(=O)c1c(C(F)F)nn(C)c1F)C1CC1 [Example 13] | 100% |  | 4.75
Cn1nc(C(F)F)c(C(=O)N(Cc2c(C3CCCC3)ccc(F)c2F)C2CC2)c1F [Example 139] | 100% |  | 
CC(C)c1ccccc1CN(C(=S)c1c(C(F)F)nn(C)c1F)C1CC1 [Example 131] | 100% | 4.36 | 
CCCCCc1ccccc1C(C)N(C(=O)c1c(C(F)F)nn(C)c1F)C1CC1 (racemic) [Example 26] | 100% |  | 4.92
CC(c1ccccc1C(F)(F)F)N(C(=O)c1c(C(F)F)nn(C)c1F)C1CC1 (stereo not drawn) [Example 66] |  |  | 3.42
Cn1nc(C(F)F)c(C(=O)N(Cc2ccccc2I)C2CC2)c1Cl [Example 35] |  |  | 3.6

SMILES | disease control (Sphaerotheca fuliginea) | logP [1, 2] | logP [1, 3]
Cn1nc(C(F)F)c(C(=O)N(C2CC2)C2CC(C)(C)c3ccccc32)c1F (stereo not drawn) [Example 85] |  |  | 3.87
Cn1nc(C(F)F)c(C(=O)N(Cc2ccccc2C2CC2)C2CC2)c1F [Example 47] | 100% |  | 3.44
Cn1nc(C(F)F)c(C(=O)N(Cc2c(Cl)cccc2C2CC2)C2CC2)c1F [Example 113] | 100% |  | 
Cn1nc(C(F)F)c(C(=O)N(Cc2cc(Br)ccc2I)C2CC2)c1F [Example 21] |  |  | 3.94
CCc1ccccc1CN(C(=S)c1c(C(F)F)nn(C)c1F)C1CC1 [Example 133] |  | 4.06 | 
Cn1nc(C(F)F)c(C(=O)N(Cc2c(Br)cccc2Br)C2CC2)c1F [Example 92] |  |  | 3.51
Cn1nc(C(F)F)c(C(=O)N(Cc2cc(F)ccc2[Si](C)(C)C)C2CC2)c1F [Example 118] | 100% |  | 
CC(c1cccc2c1OC(F)(F)O2)N(C(=O)c1c(C(F)F)nn(C)c1F)C1CC1 (racemic) [Example 72] | 100% |  | 3.58
CC(c1ncc(Cl)cc1Cl)N(C(=O)c1c(C(F)F)nn(C)c1F)C1CC1 (stereo not drawn) [Example 62] | 100% |  | 3.48
Cc1cccc(C)c1CN(C(=O)c1c(C(F)F)nn(C)c1F)C1CC1 [Example 108] |  | 3.31 | 
CCC(C)c1ccccc1CN(C(=O)c1c(C(F)F)nn(C)c1F)C1CC1 (stereo not drawn) [Example 156] |  | 4.06 | 
CC(c1ccccc1)N(C(=O)c1c(C(F)F)nn(C)c1F)C1CC1 (stereo not drawn) [Example 95] |  |  | 3.06
Cn1nc(C(F)F)c(C(=S)N(Cc2c(Cl)cccc2C(F)(F)F)C2CC2)c1F [Example 132] | 100% | 4.23 | 
CCCCc1cccc(Cl)c1CN(C(=O)c1c(C(F)F)nn(C)c1F)C1CC1 [Example 115] | 100% |  | 
CC(C)Cc1cccc(F)c1CN(C(=O)c1c(C(F)F)nn(C)c1F)C1CC1 [Example 127] | 100% |  | 
CCCCc1ccc(F)cc1CN(C(=O)c1c(C(F)F)nn(C)c1F)C1CC1 [Example 121] | 100% |  | 
CC(c1cccc(C(F)(F)c2ccccc2)c1)N(C(=O)c1c(C(F)F)nn(C)c1F)C1CC1 (stereo not drawn) [Example 78] |  |  | 4.15
Cn1nc(C(F)F)c(C(=O)N(Cc2c(Cl)cccc2[Si](C)(C)C)C2CC2)c1F [Example 116] | 100% |  | 
CCc1cccc(Cl)c1CN(C(=O)c1c(C(F)F)nn(C)c1F)C1CC1 [Example 124] | 100% |  | 
CCc1cccc(CC)c1CN(C(=O)c1c(C(F)F)nn(C)c1F)C1CC1 [Example 88] |  |  | 4.01
CC(C)c1ccc(F)cc1CN(C(=O)c1c(C(F)F)nn(C)c1F)C1CC1 [Example 135] | 100% |  | 
CCCCc1cccc(F)c1CN(C(=O)c1c(C(F)F)nn(C)c1F)C1CC1 [Example 128] | 100% |  | 

SMILES | disease control (Sphaerotheca fuliginea) | logP [1, 2] | logP [1, 3]
Cn1nc(C(F)F)c(C(=O)N(Cc2ccccc2Oc2ccc(F)cc2)C2CC2)c1F [Example 110] |  | 3.85 | 
Cn1nc(C(F)F)c(C(=O)N(Cc2c(Cl)cccc2C2CCCC2)C2CC2)c1F [Example 141] | 100% |  | 
Cn1nc(C(F)F)c(C(=O)N(C2CC2)C2CCc3cccc(Cl)c32)c1F (stereo not drawn) [Example 109] |  | 3.42 | 
Cn1nc(C(F)F)c(C(=O)N(Cc2c(F)cccc2C2CC2)C2CC2)c1F [Example 130] | 100% |  | 
CCCCCc1cccc(Cl)c1CN(C(=O)c1c(C(F)F)nn(C)c1F)C1CC1 [Example 27] | 100% |  | 5
Cn1nc(C(F)F)c(C(=O)N(Cc2cccc(-c3ccccc3)c2)C2CC2)c1Cl [Example 67] |  |  | 3.94
CC(c1cc(Br)cc(Br)c1)N(C(=O)c1c(C(F)F)nn(C)c1F)C1CC1 (racemic) [Example 106] |  | 4.26 | 
Cn1nc(C(F)F)c(C(=O)N(Cc2ncc(C(F)(F)F)cc2Cl)C2CC2)c1Cl [Example 57] |  |  | 3.55
Cn1nc(C(F)F)c(C(=O)N(C2CC2)C2CCOc3ccccc32)c1F (stereo not drawn) [Example 86] |  |  | 2.84
CC(c1cccc(I)c1)N(C(=O)c1c(C(F)F)nn(C)c1F)C1CC1 (stereo not drawn) [Example 103] |  | 3.76 | 
CC(c1ccc(Cl)cc1Cl)N(C(=O)c1c(C(F)F)nn(C)c1F)C1CC1 (stereo not drawn) [Example 70] | 100% |  | 3.83
Cn1nc(C(F)F)c(C(=S)N(Cc2ncc(C(F)(F)F)cc2Cl)C2CC2)c1F [Example 7] |  |  | 4.11
CC1CCc2cccc(C(C)N(C(=O)c3c(C(F)F)nn(C)c3F)C3CC3)c2C1 (mixture of isomers) [Example 50] | 100% |  | 4.59
CC(C)Cc1cccc(Cl)c1CN(C(=O)c1c(C(F)F)nn(C)c1F)C1CC1 [Example 32] | 100% |  | 4.44
Cn1nc(C(F)F)c(C(=O)N(Cc2c(C(F)(F)F)ccc(F)c2C(F)(F)F)C2CC2)c1F [Example 117] | 100% |  | 
Cn1nc(C(F)F)c(C(=O)N(Cc2ccccc2C2CC2C2CC2)C2CC2)c1F (stereo not drawn) [Example 155] |  | 4.25 | 
CC(c1ccccc1Br)N(C(=O)c1c(C(F)F)nn(C)c1F)C1CC1 (stereo not drawn) [Example 98] |  |  | 3.31
Cn1nc(C(F)F)c(C(=O)N(Cc2c(F)cccc2C2CCCC2)C2CC2)c1F [Example 137] | 100% |  | 
CC(c1ccccc1OC(F)(F)F)N(C(=O)c1c(C(F)F)nn(C)c1F)C1CC1 (stereo not drawn) [Example 91] |  |  | 3.6
CC(c1cc(C(F)(F)F)ccc1Cl)N(C(=O)c1c(C(F)F)nn(C)c1F)C1CC1 (stereo not drawn) [Example 96] |  |  | 3.89
CCCCc1ccc(Cl)cc1CN(C(=O)c1c(C(F)F)nn(C)c1F)C1CC1 [Example 119] | 100% |  | 
